Source: ChEMBL document CHEMBL1126467, “Discovery of dual activity molecules with thromboxane antagonist and thromboxane synthase inhibitory activity” (Bioorg Med Chem Lett, 1992)
pIC50: −log10 of the molar value.

What was measured:
Thromboxane-A synthase [1] = molecular target: T1, Thromboxane-A synthase (Homo sapiens, UniProt P24557); assay: Human microsomal Thromboxane synthase inhibition was determined by inhibiting TXB2 formation from [14C]- labelled arachidonic acid
T1 sequence (P24557 whole entry): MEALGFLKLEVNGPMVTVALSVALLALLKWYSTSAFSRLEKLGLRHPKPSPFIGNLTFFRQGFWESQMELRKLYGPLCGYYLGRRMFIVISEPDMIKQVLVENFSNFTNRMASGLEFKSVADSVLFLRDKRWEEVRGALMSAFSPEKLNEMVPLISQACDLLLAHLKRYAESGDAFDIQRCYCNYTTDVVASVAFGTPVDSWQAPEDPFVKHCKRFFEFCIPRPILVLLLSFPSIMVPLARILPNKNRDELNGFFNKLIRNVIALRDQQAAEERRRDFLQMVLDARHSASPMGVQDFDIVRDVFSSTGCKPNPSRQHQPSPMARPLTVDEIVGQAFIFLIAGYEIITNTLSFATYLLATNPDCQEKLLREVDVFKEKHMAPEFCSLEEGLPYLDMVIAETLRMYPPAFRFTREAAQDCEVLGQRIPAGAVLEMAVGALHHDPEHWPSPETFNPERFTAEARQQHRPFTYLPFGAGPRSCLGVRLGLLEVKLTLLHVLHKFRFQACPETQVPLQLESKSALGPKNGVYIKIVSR

Thromboxane A2 receptor = molecular target: T2, Thromboxane A2 receptor (Homo sapiens, UniProt P21731); assay: Tested for thromboxane antagonist potency (pA2) against […] induced platelet aggregation using human platelet rich plasma; format: functional, cell-free; details: read-out: pA2 (converted)
T2 sequence (P21731 whole entry): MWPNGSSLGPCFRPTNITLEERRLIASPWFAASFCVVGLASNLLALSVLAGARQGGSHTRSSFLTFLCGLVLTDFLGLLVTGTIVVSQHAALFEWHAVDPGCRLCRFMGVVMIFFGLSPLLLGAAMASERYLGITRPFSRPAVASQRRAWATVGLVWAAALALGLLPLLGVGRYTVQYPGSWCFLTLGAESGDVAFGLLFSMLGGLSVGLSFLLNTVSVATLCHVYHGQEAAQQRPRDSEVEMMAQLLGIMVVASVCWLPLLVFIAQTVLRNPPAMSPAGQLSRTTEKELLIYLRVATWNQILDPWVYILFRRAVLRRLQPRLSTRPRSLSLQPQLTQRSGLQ

Thromboxane-A synthase [2] = molecular target: T1, Thromboxane-A synthase; assay: Human microsomal Thromboxane synthase inhibition was determined by inhibiting TXB2 formation from [14C]- labelled arachidonic acid; Not active
[3] = molecular target: T3, Thromboxane A2 receptor (Rattus norvegicus) (UniProt P34978); assay: Compound was tested for in vivo inhibition of thromboxane A2 receptor inhibition 1 hr after administration of 10 mg/kg orally to rat; format: organism-based; parameters: dose 10 mg/kg; details: at 10 mg/kg
T3 sequence (whole entry): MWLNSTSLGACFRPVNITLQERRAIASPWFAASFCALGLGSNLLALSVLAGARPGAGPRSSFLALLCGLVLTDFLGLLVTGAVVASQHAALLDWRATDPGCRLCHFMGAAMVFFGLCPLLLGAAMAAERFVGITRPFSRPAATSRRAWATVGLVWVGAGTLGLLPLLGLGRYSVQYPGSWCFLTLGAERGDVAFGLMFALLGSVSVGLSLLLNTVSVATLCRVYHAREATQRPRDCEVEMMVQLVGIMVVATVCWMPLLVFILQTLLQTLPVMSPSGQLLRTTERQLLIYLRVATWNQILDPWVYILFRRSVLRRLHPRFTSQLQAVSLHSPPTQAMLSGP

[4] = molecular target: T3, Thromboxane A2 receptor (Rattus norvegicus); assay: Compound was tested for in vivo inhibition of thromboxane-A2 receptor inhibition 3 hr after administration of 10 mg/kg orally to rat; format: organism-based; parameters: dose 10 mg/kg; details: at 10 mg/kg
[5] = molecular target: T3, Thromboxane A2 receptor (Rattus norvegicus); assay: Compound was tested for in vivo inhibition of thromboxane-A2 receptor inhibition 5 hr after administration of 10 mg/kg orally to rat; format: organism-based; parameters: dose 10 mg/kg; details: at 10 mg/kg

Row | Compound | pIC50 (Thromboxane-A synthase [1]) | Kb (Thromboxane A2 receptor) [nM] | IC50 (Thromboxane-A synthase [2]) | inhibition [3] [%] | inhibition [4] [%] | inhibition [5] [%]
1 | O=C(O)CC1CCCc2c1n(Cc1ccc(OCCCCC#Cc3cccnc3)cc1)c1ccc(F)cc21 (stereo not drawn) | 6.40 | 200 |  |  |  | 
2 | O=C(O)CC1CCCc2c1n(Cc1cccc(OCCC/C=C\c3cccnc3)c1)c1ccc(F)cc21 (stereo not drawn) | 6.70 | 631 |  |  |  | 
3 | O=C(O)CC1CCCc2c1n(Cc1ccc(Cl)cc1)c1ccc(F)cc21 (stereo not drawn) |  | 79.4 | Not Active |  |  | 
4 | O=C(O)CC1CCCc2c1n(Cc1cccnc1)c1ccc(F)cc21 (stereo not drawn) |  | 3160 | Not Active |  |  | 
5 | O=C(O)CC1CCCc2c1n(Cc1cccc(OCCCC#Cc3cccnc3)c1)c1ccc(F)cc21 (stereo not drawn) | 7.30 | 1000 |  | 86 | 77 | 71
6 | O=C(O)CC1CCCc2c1n(Cc1ccc(OCCCC#Cc3cccnc3)cc1)c1ccc(F)cc21 (stereo not drawn) | 6.22 | 158 |  |  |  | 

Other lines, results leading:

Row | pIC50 (Thromboxane-A synthase [1]) | Kb (Thromboxane A2 receptor) [nM] | IC50 (Thromboxane-A synthase [2]) | inhibition [3] [%] | inhibition [4] [%] | inhibition [5] [%] | Compound
7 | 7.40 | 2510 |  |  |  |  | O=C(O)CC1CCCc2c1n(Cc1cccc(OCCCCC#Cc3cccnc3)c1)c1ccc(F)cc21 (stereo not drawn)
8 | 7.00 | 501 |  |  |  |  | O=C(O)CC1CCCc2c1n(Cc1cccc(OCCCCc3cccnc3)c1)c1ccc(F)cc21 (stereo not drawn)
9 | 6.52 | 3160 |  |  |  |  | O=C(O)CC1CCCc2c1n(Cc1cccc(OCCCCCc3cccnc3)c1)c1ccc(F)cc21 (stereo not drawn)
10 | 6.30 | 3980 |  |  |  |  | O=C(O)CC1CCCc2c1n(Cc1cccc(CCCCCc3cccnc3)c1)c1ccc(F)cc21 (stereo not drawn)
